The text below walks through data of ChEMBL document CHEMBL1151011, “Heterocyclic analogs of the benzolactam nucleus of the non-peptidic growth hormone secretagogue L-692,429” (1995).

Active and inactive are the calls of the source. No cut-off for these calls is given here.

The first test is filed under the species Rattus norvegicus. Put plainly: Effective dose of compound required for in vitro effect on growth hormone release was measured in rat pituitary cell assay. The format is functional, Pituitary gland cell. The note with it: Rattus norvegicus, Pituitary gland cell; read-out: ED50 (the source's name).
For the compound `CC(C)(N)CC(=O)NC1CCc2ccccc2N(Cc2ccc(-c3ccccc3-c3nn[nH]n3)cc2)C1=O` [L-158432], the EC50 came to 120 nM.

Regarding `CC(C)(N)CC(=O)N[C@@H]1CC(O)c2ccccc2N(Cc2ccc(-c3ccccc3-c3nn[nH]n3)cc2)C1=O` (some centres not stated), the EC50 turned out to be 4000 nM.

For `CC(C)(N)CC(=O)N[C@@H]1COc2ccccc2N(Cc2ccc(-c3ccccc3-c3nn[nH]n3)cc2)C1=O`, the EC50 was determined as 120 nM.

With `CC(C)(N)CC(=O)N[C@@H]1CSc2ccccc2N(Cc2ccc(-c3ccccc3-c3nn[nH]n3)cc2)C1=O`, the EC50 stood at 100 nM.

Take `CC(C)(N)CC(=O)N[C@@H]1CC(=O)c2ccccc2N(Cc2ccc(-c3ccccc3-c3nn[nH]n3)cc2)C1=O`: the EC50 came to 2700 nM.

As for `CC(C)(N)CC(=O)N[C@@H]1C[S+]([O-])c2ccccc2N(Cc2ccc(-c3ccccc3-c3nn[nH]n3)cc2)C1=O` (stereo in doubt), the EC50 amounted to 3000 nM.

As to `CC(C)(N)CC(=O)NC1Cc2ccccc2N(Cc2ccc(-c3ccccc3-c3nn[nH]n3)cc2)C1=O` (configuration not stated), the EC50 is 2000 nM.

Consider `CC(C)(N)CC(=O)NC1Sc2ccccc2N(Cc2ccc(-c3ccccc3-c3nn[nH]n3)cc2)C1=O` (configuration not stated), for which the EC50 is 500 nM.

In the case of `CC(C)(N)CC(=O)N[C@@H]1CS(=O)(=O)c2ccccc2N(Cc2ccc(-c3ccccc3-c3nn[nH]n3)cc2)C1=O`, the EC50 amounted to 1000 nM.

In the case of `CC(C)(N)CC(=O)N[C@@H]1CCc2ccccc2N(Cc2ccc(-c3ccccc3-c3nn[nH]n3)cc2)C1=O`, the EC50 amounted to 60 nM.

The same test, now with this note: read-out: ED50 (the source's name).
Take `CC(C)(N)CC(=O)N[C@@H]1C[S+]([O-])c2ccccc2N(Cc2ccc(-c3ccccc3-c3nn[nH]n3)cc2)C1=O` (stereo in doubt; 22a): the EC50 was 4000 nM.

The species named for a further test is Rattus norvegicus. Kind of test: Effective dose of compound required for in vitro effect on growth hormone release was measured in rat pituitary cell assay; IA means compound is inactive at 20 ug/mL concentration. The note with it: Pituitary gland cell. The format is functional.
Take `CC1=NC(NC(=O)CC(C)(C)N)C(=O)N(Cc2ccc(-c3ccccc3-c3nn[nH]n3)cc2)c2ccccc21` (configuration not stated): the ED50 result is “inactive”.
